# Measured values from the supplement of paper PMC11451515.
# Tested on: NOMO1
# Experiment: cell viability relative to DMSO control; higher = less cytotoxic
# Details: 48 h
# Outline: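 NOMO1 or SEM (500 cells/well) or P12-Ichikawa (1000 cells/well) leukemia cells were adapted for at least four passages in each medium. They were seeded in 1536-well plates (5 μl) and pin-dosed with library compounds in DMSO over an 11-point threefold series, 47 μM to 0.79 nM. CellTiter-Glo One luminescence was read after 48 h at 37°C. Viability is the per-plate percentage relative to DMSO wells, with cell-free wells as background.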
# [1] = HPLM + 10% dialyzed FBS, 0.000781 µM
# [2] = HPLM + 10% dialyzed FBS, 0.00234 µM
# [3] = HPLM + 10% dialyzed FBS, 0.00702 µM
# [4] = HPLM + 10% dialyzed FBS, 0.0211 µM
# [5] = HPLM + 10% dialyzed FBS, 0.0632 µM
# [6] = HPLM + 10% dialyzed FBS, 0.19 µM
# [7] = HPLM + 10% dialyzed FBS, 0.569 µM
# [8] = HPLM + 10% dialyzed FBS, 1.71 µM
# [9] = HPLM + 10% dialyzed FBS, 5.12 µM
# [10] = HPLM + 10% dialyzed FBS, 15.4 µM
# [11] = HPLM + 10% dialyzed FBS, 46.1 µM
# [12] = RPMI 5 mM glucose + 10% FBS, 0.000781 µM
# [13] = RPMI 5 mM glucose + 10% FBS, 0.00234 µM
# [14] = RPMI 5 mM glucose + 10% FBS, 0.00702 µM
# [15] = RPMI 5 mM glucose + 10% FBS, 0.0211 µM
# [16] = RPMI 5 mM glucose + 10% FBS, 0.0632 µM
# [17] = RPMI 5 mM glucose + 10% FBS, 0.19 µM
# [18] = RPMI 5 mM glucose + 10% FBS, 0.569 µM
# [19] = RPMI 5 mM glucose + 10% FBS, 1.71 µM
# [20] = RPMI 5 mM glucose + 10% FBS, 5.12 µM
# [21] = RPMI 5 mM glucose + 10% FBS, 15.4 µM
# [22] = RPMI 5 mM glucose + 10% FBS, 46.1 µM
# [23] = RPMI 5 mM glucose + 10% dialyzed FBS, 0.000781 µM
# [24] = RPMI 5 mM glucose + 10% dialyzed FBS, 0.00234 µM
# [25] = RPMI 5 mM glucose + 10% dialyzed FBS, 0.00702 µM
# [26] = RPMI 5 mM glucose + 10% dialyzed FBS, 0.0211 µM
# [27] = RPMI 5 mM glucose + 10% dialyzed FBS, 0.0632 µM
# [28] = RPMI 5 mM glucose + 10% dialyzed FBS, 0.19 µM
# [29] = RPMI 5 mM glucose + 10% dialyzed FBS, 0.569 µM
# [30] = RPMI 5 mM glucose + 10% dialyzed FBS, 1.71 µM
# [31] = RPMI 5 mM glucose + 10% dialyzed FBS, 5.12 µM
# [32] = RPMI 5 mM glucose + 10% dialyzed FBS, 15.4 µM
# [33] = RPMI 5 mM glucose + 10% dialyzed FBS, 46.1 µM
SMILES,cell viability [1] [%],cell viability [2] [%],cell viability [3] [%],cell viability [4] [%],cell viability [5] [%],cell viability [6] [%],cell viability [7] [%],cell viability [8] [%],cell viability [9] [%],cell viability [10] [%],cell viability [11] [%],cell viability [12] [%],cell viability [13] [%],cell viability [14] [%],cell viability [15] [%],cell viability [16] [%],cell viability [17] [%],cell viability [18] [%],cell viability [19] [%],cell viability [20] [%],cell viability [21] [%],cell viability [22] [%],cell viability [23] [%],cell viability [24] [%],cell viability [25] [%],cell viability [26] [%],cell viability [27] [%],cell viability [28] [%],cell viability [29] [%],cell viability [30] [%],cell viability [31] [%],cell viability [32] [%],cell viability [33] [%]
C[C@](Cc1c[nH]c2ccccc12)(NC(=O)OC1C2CC3CC(C2)CC1C3)C(=O)NC[C@H](NC(=O)CCC(=O)O)c1ccccc1 (stereo partly specified),123,94,130,135,148,142,134,145,157,154,141,114,128,120,126,120,127,125,126,151,153,147,106,123,120,132,132,133,153,129,139,147,153
C[C@@]12C(=O)OC(=O)[C@@]1(C)C1CCC2O1,111,109,107,116,115,123,114,101,70.4,12.6,6.53,98.4,90.8,86.6,87.1,103,89.9,95.3,81.6,79.9,8.16,6.61,110,96.1,101,99.7,106,106,88.6,89.8,64.9,7.15,5.77
Cc1onc(-c2ccccc2Cl)c1C(=O)N[C@@H]1C(=O)N2[C@@H]1SC(C)(C)[C@@H]2C(=O)[O-],104,104,123,116,98.9,103,105,113,92.8,105,84.7,112,119,134,110,104,115,115,107,99.5,97.9,94.3,117,124,123,103,111,103,102,108,110,84.1,96.3
C[C@]12CC[C@@H]3c4ccc(O)cc4CC[C@H]3[C@@H]1[C@@H](O)[C@@H](O)[C@@H]2O,117,121,124,123,121,127,116,128,103,110,102,–,–,–,–,–,–,–,–,–,–,–,106,138,118,142,140,141,131,134,150,128,130
